Measured values reported in patent US20120258980A1, “Antibacterial Agent for Drug-Resistant Bacteria, Method for Screening for Same, and Use of Same” (priority 2009, published 2012).
≈ marks a conversion by molar mass, not a printed value. Read-outs that look alike come from different tables or passages of the source.

What was measured:
Enterococcus faecalis = test: MIC measurement, Test Example 6 (enterococcus); assay type: cell-based; details: Enterococcus faecalis, read-out: MIC
Method: Each of the bacterial strains listed in Table 1-1 was shake-cultured at 37° C. overnight in 4 mL of a medium (Tryptical Soy Broth: TSB, product of Becton Dickinson and Company). FDA209P was used as a control.
After completion of culturing, the resultant culture was suspended in a cation-adjusted Mueller Hinton Broth (CAMHB, product of Becton Dickinson and Company). Then, the obtained bacterial culture was adjusted in absorbance with the CAMHB so that the absorbance at 578 nm of the bacterial culture was adjusted to 0.3 measured by an absorption spectrometer. In addition, the resultant bacterial culture was 500-fold diluted with the CAMHB.
Each of the 500-fold diluted, pre-cultured bacterial cultures was added at 50 μL/well to the CAMHB containing the quinolones and the nybomycins at various concentrations (50 μL/well), followed by statically culturing at 37° C. overnight.
After completion of culturing, the growth of the bacteria was visually determined based on turbidity to measure MIC in each bacterial strain.
Quinolones and nybomycins were evaluated for antibacterial activity against Enterococcus faecalis shown in Table 6, wherein the other strains than NCTC12201 and NCTC12203 were subdivided from Shionogi & Co., Ltd (note that these strains are available also from the Department of Bacteriology, Juntendo University). The NCTC strains are both vancomycin-resistant E. faecalis and available from the National Collection of Type Cultures (NCTC).

[1] = test system: MRSA, CA-MRSA and MSSA of Staphylococcus aureus; test: MIC measurement, Test Example 4 (MRSA, CA-MRSA and MSSA strains); assay type: cell-based; details: Staphylococcus aureus
In short: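 S. aureus strains (FDA209P control) grown overnight in TSB at 37° C, resuspended in CAMHB, adjusted to A578 0.3 and diluted 500-fold. Equal volume added to CAMHB with serial compound concentrations, incubated statically overnight at 37° C. MIC read visually as lowest concentration without turbidity.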

[2] = test system: VISA clinical isolates of MRSA (VI-MRSA) and of MSSA (VI-MSSA); test: microbe, parasite or virus in culture; assay type: cell-based, Staphylococcus aureus
In short: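 Strains were grown overnight at 37° C in TSB, adjusted in CAMHB to 0.3 absorbance at 578 nm and diluted 500-fold before equal-volume addition to compound dilutions.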

C[C@H]1COc2c(N3CCN(C)CC3)c(F)cc3c(=O)c(C(=O)O)cn1c23 [LVFX, levofloxacin]
MIC (Enterococcus faecalis; E. faecalis 36-15672, quinolone-susceptible enterococci): 1 µg/mL (≈ 2.77 µM)
MIC (Enterococcus faecalis; E. faecalis 36-15673, quinolone-susceptible enterococci): 1 µg/mL (≈ 2.77 µM)
MIC (Enterococcus faecalis; E. faecalis 36-15678, quinolone-susceptible enterococci): 1 µg/mL (≈ 2.77 µM)
MIC (Enterococcus faecalis; E. faecalis 36-15686, quinolone-resistant enterococci): 64 µg/mL (≈ 177 µM)
MIC (Enterococcus faecalis; E. faecalis 36-15688, quinolone-susceptible enterococci): 1 µg/mL (≈ 2.77 µM)
MIC (Enterococcus faecalis; E. faecalis 36-15694, quinolone-resistant enterococci): 64 µg/mL (≈ 177 µM)
MIC (Enterococcus faecalis; E. faecalis 36-15696, quinolone-susceptible enterococci): 1 µg/mL (≈ 2.77 µM)
MIC (Enterococcus faecalis; E. faecalis 36-15703, quinolone-resistant enterococci): 32 µg/mL (≈ 88.6 µM)
MIC (Enterococcus faecalis; E. faecalis 36-15716, quinolone-resistant enterococci): 32 µg/mL (≈ 88.6 µM)
MIC (Enterococcus faecalis; E. faecalis 36-15718, quinolone-susceptible enterococci): 2 µg/mL (≈ 5.53 µM)
MIC (Enterococcus faecalis; E. faecalis 36-15720, quinolone-susceptible enterococci): 1 µg/mL (≈ 2.77 µM)
MIC (Enterococcus faecalis; E. faecalis 36-15722, quinolone-resistant enterococci): 64 µg/mL (≈ 177 µM)
MIC (Enterococcus faecalis; E. faecalis 36-15726, quinolone-resistant enterococci): 64 µg/mL (≈ 177 µM)
MIC (Enterococcus faecalis; E. faecalis 36-15730, quinolone-susceptible enterococci): 2 µg/mL (≈ 5.53 µM)
MIC (Enterococcus faecalis; E. faecalis 36-15736, quinolone-susceptible enterococci): 1 µg/mL (≈ 2.77 µM)
MIC (Enterococcus faecalis; E. faecalis 36-15741, quinolone-susceptible enterococci): 2 µg/mL (≈ 5.53 µM)
MIC (Enterococcus faecalis; NCTC 12201 / VRE, E. faecalis NCTC12201, vancomycin-resistant (VRE), quinolone-susceptible enterococci): 1 µg/mL (≈ 2.77 µM)
MIC (Enterococcus faecalis; NCTC 12203 / VRE, E. faecalis NCTC12203, vancomycin-resistant (VRE), quinolone-susceptible enterococci): 1 µg/mL (≈ 2.77 µM)
MIC ([1]; ATCC 29213 / MRSA / MSSA, ATCC 29213, MSSA): 0.125 µg/mL (≈ 0.346 µM)
MIC ([1]; COL, MRSA): 0.5 µg/mL (≈ 1.38 µM)
MIC ([1]; FDA209P / MRSA / MSSA, FDA209P, MSSA): ≤ 0.063 µg/mL
MIC ([1]; ISA12-1, MRSA): 0.25 µg/mL (≈ 0.692 µM)
MIC ([1]; ISA12-2, MRSA): 0.25 µg/mL (≈ 0.692 µM)
MIC ([1]; ISA35-1, MRSA): 1 µg/mL (≈ 2.77 µM)
MIC ([1]; ISA37-1, MSSA): 0.25 µg/mL (≈ 0.692 µM)
MIC ([1]; ISA49-1, MSSA): 0.25 µg/mL (≈ 0.692 µM)
MIC ([1]; ISA51-1, MSSA): 0.25 µg/mL (≈ 0.692 µM)
MIC ([1]; ISA56-3, MRSA): 0.25 µg/mL (≈ 0.692 µM)
MIC ([1]; ISA58-1, MRSA): 0.5 µg/mL (≈ 1.38 µM)
MIC ([1]; ISA62-1, MRSA): 0.25 µg/mL (≈ 0.692 µM)
MIC ([1]; ISA73-1, MSSA): 0.125 µg/mL (≈ 0.346 µM)
MIC ([1]; KBSA32, MRSA): 0.125 µg/mL (≈ 0.346 µM)
MIC ([1]; KBSA34, MRSA): 0.25 µg/mL (≈ 0.692 µM)
MIC ([1]; KBSA72, MRSA): > 128 µg/mL
MIC ([1]; KBSA96, MRSA): 8 µg/mL (≈ 22.1 µM)
MIC ([1]; KBSA171, MRSA): 16 µg/mL (≈ 44.3 µM)
MIC ([1]; KSA24, MRSA): 8 µg/mL (≈ 22.1 µM)
MIC ([1]; KSA31, MRSA): 4 µg/mL (≈ 11.1 µM)
MIC ([1]; KSA36, MRSA): > 128 µg/mL
MIC ([1]; MRSA / MSSA / NCTC 8325, NCTC 8325, MSSA): 0.25 µg/mL (≈ 0.692 µM)
MIC ([1]; MRSA / MSSA / USA300, USA300 FPR3757, CA-MRSA): 32 µg/mL (≈ 88.6 µM)
MIC ([1]; MW2, CA-MRSA): 0.125 µg/mL (≈ 0.346 µM)
MIC ([1]; N315, MRSA): 0.125 µg/mL (≈ 0.346 µM)
MIC ([2]; Staphylococcus aureus, 99/3700-W, VI-MRSA, The United Kingdom): 16 µg/mL (≈ 44.3 µM)
MIC ([2]; Staphylococcus aureus, 99/3759-V, VI-MRSA, The United Kingdom): 16 µg/mL (≈ 44.3 µM)
MIC ([2]; Staphylococcus aureus, 28160, VI-MRSA, South African Republic): 8 µg/mL (≈ 22.1 µM)
MIC ([2]; Staphylococcus aureus, 98141, VI-MRSA, France): 16 µg/mL (≈ 44.3 µM)
MIC ([2]; Staphylococcus aureus, A7 (JCSC4842), VI-MRSA, Taiwan): 8 µg/mL (≈ 22.1 µM)
